In the assay the test system is RPMI-8226 cells. The assay can be described thus: Cell proliferation of RPMI-8226 cells with doxycycline-inducible MLYCD shRNA, with or without N-acetyl-cysteine. In kind it is cell-based, human. The note with it: RPMI-8226 shRNA cells; 2 mM N-Acetyl Cysteine. As to the method:
HapMap cells (GM06997, CEPH/UTAH pedigree 13291) were obtained from Coriell Institute and RPMI-8226 and K562 cells were obtained from NCI-Frederick Cancer DCTD Tumor/Cell line Repository. Cells were grown in RPMI 1640 plus 10% fetal bovine serum (FBS) in the presence of 5% carbon dioxide. Cell count was determined using a CASY Cell Counter (Roche Applied Science). Where indicated, cells were incubated with 2 mM N-acetyl-cysteine.
The viral supernatant for infection was obtained from the filtered growth media of the packaging cells HEK293T transfected with 3 μg psPAX, 1 μg pVSVG, 4 μg of shRNA contructs and 24 μl Lipofectamine 2000 (Life Technology) and the relevant shRNAs. 5×10^5 cells were then plated on 6-well plates and infected with the viral supernatant in the presence of 4 μg/mL polybrene. After two days, the medium was replaced with selection medium containing 2 μg/mL puromycin.
The expression of the shRNA constructs was induced by incubating cells with 2 μg/mL Doxycyclin.

In the case of `CC(=O)N[C@@H](CS)C(=O)O` [N-Acetyl-cysteine], the “cell proliferation of MLYCD-deficient cells in the presence of antioxidant” value is “restored the proliferative defects”.

The values above are taken from US20150039274A1, “SYSTEM AND METHOD FOR PERSONALIZED METABOLIC MODELING” (Ramot at Tel-Aviv University Ltd., priority 2013, published 2015).
